Test results reported in patent publication US6642215B2 (Leo Pharma A/S, priority 2001, dated 2003).
Like-named read-outs stand apart in the source and are kept apart here.

Experiments:
NF-κB = assay: NF-κB-dependent luciferase reporter assay in LPS-stimulated THP-1 cells; assay type: cell-based, human; conditions: 1 μM compound, then 1 μg/ml LPS 5 h
Excerpt: Luciferase plasmids: The NF-κB-luciferase reporter plasmid (pBIIX) was a gift from Marja Jäättelä and Ida S. Mathiasen, the Danish Cancer Society. It was constructed by inserting a synthetic fragment with two copies of the sequence (5′-ACAGAGGGGACTTTCCGAGAG-3′ separated by four nucleotides (5′-ATCT-3′) in front of a mouse fos promoter in a plasmid pfLUC (a pBluescript-based plasmid with a firefly luciferase encoding sequence) (K. Saksela and D. Baltimore, Mol. Cell Biol. 13, 1993, pp. 3698-3705) The NF-κB binding site from the mouse Igκ light chain is underlined (M. Grilli et al., Int. Rev, Cytol. 143, 1993, pp. 1-62). A Renilla luciferase plasmid with a thymidine kinase promoter (pRL-TK vector) was used as a control for transfection efficiency and was obtained from Promega Inc., Madison, Wis. Plasmid DNA was prepared and purified using the QIAGEN EndoToxin-free Maxiprep-500 kit (QIAGEN, Hilden, Germany). […]
The cell lysate was assayed for luciferase activity using the Dual luciferase kit as described by the manufacturer (Promega). […] Firefly luciferase activity was corrected for differences in transfection efficiency by normalizing it to the measured Renilla luciferase activity.

IκBα, IκBβ = assay: Western blotting of LPS-induced IκB degradation in THP-1 cells; assay type: cell-based, human; conditions: 1 μM compound 24 h before 1 μg/ml LPS for 10 to 30 min, versus DMSO-treated cells
Experimental: Western blotting: THP-1 cells (5×10^6 cells) were starved overnight at 37° C., 5% CO2 in starvation medium (RPMI 1640 with 2% FBS) including 1 μM of compound A or 0.01% DMSO. The cells were hereafter stimulated with 1 μg/ml LPS (E. coli serotype 055: B5, Sigma-Aldrich Danmark AS, Vallensbaek Strand, Denmark) at the indicated times. Whole cell extracts were prepared in lysis buffer (50 mM HEPES, pH 7.5, 150 mM NaCl, 10 mM EDTA, 10 mM Na4P2O7, 100 mM NaF, 2 mM Na3VO4, 1% Triton-X-100, 0.5 mM Pefabloc (Boehringer Mannheim GmbH, Mannheim, Germany), […]).
A 3×SDS-sample buffer (125 mM Tris/HCl pH 6.8, 4% SDS, 20% glycerol, 0.025% bromphenol blue, 10% DTT) was added to 200 μl of clarified cell lysate, and the sample (20 μl) was boiled and electrophoresed on a 12% SDS-polyacrylamide gel. The primary antibodies (anti-IκBα, anti-IκBβ, anti-cdk-7; all from Santa Cruz Biotechnology Inc., Heidelberg, Germany) were diluted 1:1000. The secondary antibody (anti-rabbit-HRP from DAKO A/S, Glostrup, Denmark) was used in a 1:2000 dilution. […] The relative amounts of the transferred proteins were quantified by using the ImageQuant Software (Molecular Dynamics, Sunnyvale, Calif., USA) by scanning the autoradiographic films and normalized to the related cdk-7 amounts.

NYH SCLC cells = assay: DNA synthesis (tritiated thymidine incorporation) in NYH SCLC cells; assay type: cell-based
Experimental: (§1) DNA synthesis: NYH SCLC, HT-1080, Colo-320, PC-3 and H460 cells (7.5×10^3 cells/ml) were seeded in tissue culture vessels and the test compound were added 2 h after plating. Following an incubation for 144 h tritiated thymidine (5 CI/mmol, Amersham Pharmacia Biotech) was added to the culture at the concentration of 1 μCi/ml, and the cells were incubated for additional 4 h. The incorporated thymidine was measured with a β-counter. Each compound concentration was tested in triplicate.

Colo-320 cells = assay: DNA synthesis (tritiated thymidine incorporation) in Colo-320 cells; assay type: cell-based; conditions: Homo sapiens, 144 h incubation, mean ± SD of two to four experiments
Experimental: as §1

Colo-320 DM = Colo-320 DM xenografts in nude mice, tumour growth; assay type: in vivo, NMRI nu/nu mice; conditions: Colo-320 xenograft, 50 mg/kg, oral gavage
Experimental: All of the animal experiments were conducted according to the guidelines and ethical standards of the Danish Committee for Animal Experiments. Female NMRI nu/nu mice 6 weeks of age were purchased from M&B (Ry, Denmark). The mice were allowed an acclimatisation period of 1-3 weeks before start of the experiments. The nude mice were housed in Scantainers under semi-sterile conditions and all handling of mice was performed in a laminar flow bench.
Colo-320 DM, NMRI nu/nu mice were injected with 5×10^6 cells in 0.2 ml media s.c. in each flank and tumour size was measured as mentioned above. Compound A was given for three weeks by oral gavage from day 8 when the tumour size was about 20 mm^2. Each treatment group consisted of 10 mice.
Statistical Methods In the animal models, tumour sizes were expressed by the mean of the trends in each treatment group. The trend is the linear increment or tumour size, where tumour size is the square root of the (mean) area of the tumour(s). Comparison with controls was expressed as T/C % and calculated as follows:
A=(overall mean tumour size at baseline+mean trend of treatment*intended days of treatment) […]
Overall mean tumour size at baseline=pooling all treatments this is the mean of all baseline values. For each mouse the baseline value is calculated as the square root of the (mean) area of the tumour(s). […]

## N#CNC(=Nc1ccncc1)NCCCCCCOc1ccc(Cl)cc1 [compound A, N-(6-(4-chlorophenoxy)hexyl)-N′-cyano-N″-(4-pyridyl)guanidine]
NF-κB; preincubation 2 h
  NF-κB-dependent luciferase activity, change: small decrease
NF-κB; preincubation 24 h, relative to DMSO-treated cells
  NF-κB-dependent induction of luciferase expression blocked: ~80%
IκBα, IκBβ
  LPS-induced IκB degradation: much slower rate
NYH SCLC cells; NYH SCLC cells, 144 h incubation, mean ± SD of two to four experiments, read-out: DNA synthesis (IC50 nM)
  IC50: 0.64 ± 0.06 nM
NYH SCLC cells; incorporation of tritiated thymidine in NYH SCLC cells, read-out: NYH proliferation in vitro (IC50 nM)
  IC50: 0.64 ± 0.06 nM
Colo-320 cells
  IC50: 5.4 ± 0.1 nM
Colo-320 DM
  In vivo xenografts in nude mice T/C (%): −50%
